In the NIST ThermoML archive (doi:10.1021/je2008704):
± gives the expanded uncertainty stated by the source.

Details: Liquid, Ebulliometric method (Recirculating still)

OCCO [1,2-ethanediol]
vapor or sublimation pressure (412.81 K): 13.33 ± 0.06 kPa
vapor or sublimation pressure (422.78 K): 20 ± 0.06 kPa
vapor or sublimation pressure (430.26 K): 26.66 ± 0.06 kPa
vapor or sublimation pressure (436.37 K): 33.33 ± 0.07 kPa
vapor or sublimation pressure (441.5 K): 40 ± 0.07 kPa
vapor or sublimation pressure (445.96 K): 46.66 ± 0.07 kPa
vapor or sublimation pressure (449.93 K): 53.33 ± 0.07 kPa
vapor or sublimation pressure (453.52 K): 60 ± 0.07 kPa
vapor or sublimation pressure (456.78 K): 66.66 ± 0.07 kPa
vapor or sublimation pressure (459.79 K): 73.33 ± 0.08 kPa
vapor or sublimation pressure (462.58 K): 79.99 ± 0.08 kPa
vapor or sublimation pressure (465.18 K): 86.66 ± 0.08 kPa
vapor or sublimation pressure (467.62 K): 93.32 ± 0.08 kPa
vapor or sublimation pressure (469.48 K): 98.66 ± 0.09 kPa
vapor or sublimation pressure (470.02 K): 100.4 ± 0.1 kPa

CCO [ethanol]
vapor or sublimation pressure (329.67 K): 40 ± 0.08 kPa
vapor or sublimation pressure (336.06 K): 53.33 ± 0.08 kPa
vapor or sublimation pressure (341.23 K): 66.66 ± 0.09 kPa
vapor or sublimation pressure (345.59 K): 79.99 ± 0.1 kPa
vapor or sublimation pressure (349.38 K): 93.32 ± 0.1 kPa
vapor or sublimation pressure (351.03 K): 99.74 ± 0.11 kPa

O [water]
vapor or sublimation pressure (349.09 K): 40 ± 0.07 kPa
vapor or sublimation pressure (356.17 K): 53.33 ± 0.07 kPa
vapor or sublimation pressure (361.87 K): 66.66 ± 0.08 kPa
vapor or sublimation pressure (366.69 K): 79.99 ± 0.09 kPa
vapor or sublimation pressure (370.88 K): 93.32 ± 0.09 kPa
vapor or sublimation pressure (372.76 K): 100 ± 0.1 kPa
